# Assay results published in PubChem BioAssay (NCI).
#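 Each compound was tested at five concentrations against cells in 96-well plates for 48 hours. Here, GI50 denotes the concentration required for 50% inhibition of growth. TGI denotes the concentration required for complete inhibition of growth.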
# Assays:
# Experiment in all cases: NCI-60 cell line screen, 48 h
# [1] = test system: SK-OV-3 ovarian
# [2] = test system: SF-268 CNS
# [3] = test system: HCT-116 colon
# [4] = test system: HL-60(TB) leukemia
# [5] = test system: DU-145 prostate
# [6] = test system: SF-539 CNS
# [7] = test system: RXF 393 renal
# [8] = test system: NCI-H23 lung
# [9] = test system: HCC-2998 colon
# [10] = test system: SF-295 CNS
SMILES,GI50 [1] [µM],TGI [1] [µM],GI50 [2] [µM],TGI [2] [µM],GI50 [3] [µM],TGI [3] [µM],GI50 [4] [µM],TGI [4] [µM],GI50 [5] [µM],TGI [5] [µM],GI50 [6] [µM],TGI [6] [µM],GI50 [7] [µM],TGI [7] [µM],GI50 [8] [µM],TGI [8] [µM],GI50 [9] [µM],TGI [9] [µM],GI50 [10] [µM],TGI [10] [µM]
CS(=O)(=O)CCNCc1ccc(-c2ccc3ncnc(Nc4ccc(OCc5cccc(F)c5)c(C(F)(F)F)c4)c3c2)o1,3.61,9.86,3.74,7.78,3.94,8.16,5.65,13.4,3.91,8.07,4.59,12.3,2.85,6.15,3.88,8.51,4.4,8.29,4.4,9.43
CN(C)C/C=C/C(=O)Nc1cc2c(Nc3ccc(F)c(Cl)c3F)ncnc2cc1OCCOC(F)F,< 0.01,,0.71,3.89,0.625,2.98,1.74,6.96,0.191,3.34,0.999,3.02,0.241,1.6,1.23,3.82,1.16,2.68,1.72,9.86
Cc1nc([C@H]2CC[C@H]3[C@@H]4CCC5=CC(=O)CC[C@]5(C)[C@H]4CC[C@]23C)cs1,> 100,> 100,> 27.2,> 100,3.47,> 100,1.53,> 100,> 100,> 100,18.3,> 100,10.6,> 100,2.58,> 100,6.58,> 100,2.21,> 100
COC(=O)c1c(O)c([N+](=O)[O-])cc2c1c1c(n2Cc2ccccc2)C(=O)c2ccccc2C1=O,> 100,> 100,8.48,76.9,4.06,17.5,25.7,> 100,14.3,27.6,18.3,55.3,12.3,61.9,21.9,84.4,11.2,23.2,52.1,> 100
Fc1ccc(-c2ncn(C3CCNCC3)c2-c2ccnc(Oc3ccc(F)c(F)c3)n2)cc1,7.54,> 16.4,12,> 25,4.09,7.56,10.6,24.6,8.78,> 16.7,4.94,9.8,3.15,6.48,> 17.8,> 25,3.84,7.77,7.15,> 17.2
C=C1c2[nH]c3ccccc3c2C2C(CC)C1CCN2C (centres undefined),,> 100,,> 100,,> 100,,> 100,,> 100,,> 100,,> 100,,> 100,,37.8,,> 100
Cc1nccc2c3ccc(OCc4cn(-c5ccc(Cl)cc5)nn4)cc3n(CCCc3ccccc3)c12,> 33.3,> 33.3,4.66,17.5,2.14,> 33.3,1.88,8.37,4.33,> 33.3,4.24,10.6,4.45,11.6,19.7,> 33.3,6.13,> 33.3,4.81,12.7
Cc1cc(O)c(C2=NN(c3ccc(S(N)(=O)=O)cc3)C(c3ccc(N(C)C)cc3)C2)c(C)c1Cl (centres undefined),27.4,90.8,18.7,37.2,7.6,21.1,20.3,50,19.2,38.4,15.7,29.3,24.5,59.1,17.7,43.7,14.8,30.9,19.2,44.4
C[C@@H]1Cc2c([nH]c3ccccc23)[C@@H](c2c(F)cc(NC3CN(CCCF)C3)cc2F)N1CC(F)(F)CO,14.4,28.4,4.78,19.5,1.94,3.83,4.9,22.5,6.52,20.2,4.36,15.7,4.38,17,11.9,25.6,1.93,4,2.25,5.21
CCN1C2=NCCN2S(=O)(=O)c2ccccc21,,> 100,,> 100,,> 100,,> 100,,> 100,,> 100,,> 100,,> 100,,> 100,,> 100
